Laboratory results: US4382888A, “Tryptophan derivative and process for production thereof” (Ajinomoto Company Incorporated, priority 1978, dated 1983)

Columns and labels:
[1] = Stability in aqueous solution; type: physicochemical
subtilis = experiment: inhibitory activity against subtilis; type: biochemical
thermolysin = thermolysin (Bacillus thermoproteolyticus, UniProt P00800); experiment: inhibitory activity against thermolysin (casein digestion, Folin reagent); type: biochemical, genus Bacillus
Description: (§1) A mixture of 0.25 ml of sample solution in 0.05 M phosphate buffer at pH 7.5 and 0.25 ml of thermolysin solution (20 μg/ml in the same buffer was incubated for 10 minutes at 37° C. The mixture was added with 1.5 ml of 1.33% Hammarsten casein solution in 0.1M phosphate buffer (pH 7.0) and incubated for 10 minutes at 37° C. By the addition of 2 ml of 0.44 M trichloroacetic acid the reaction was stopped. After standing for 30 minutes at 37° C., the reaction mixture was filtered. To 1.0 ml of the filtrate 5 ml of 0.55 M Na2 CO3 and 1 ml of 2 times diluted Folin-Ciocaltean reagent were added. After standing for 60 minutes at 37° C., the absorbance (Is) was measured at 660 mμ. The blank value (Ib) was taken by carrying out the reaction using 0.25 ml of 0.05M phosphate buffer (pH 7.5) instead of thermolysin. […] Inhibition rate against enzyme activity is calculated by the following equation: [formula] Now, inhibitory activity against metallo proteinase produced by Pseudomonas aeruginosa can be measured in the same manner as above wherein amounts of enzyme used is established so as to have following value. A value of (Es-Eb) according to method for measuring inhibitory activity is 0.6 wherein cell length used for the measurement of absorbance is 1 cm.

pepsin = pepsin (Sus scrofa, UniProt P00791); experiment: inhibitory activity against pepsin; type: biochemical
trypsin = target: T1, trypsin (Bos taurus, UniProt P00760); experiment: inhibitory activity against trypsin; type: biochemical
T1 sequence (P00760 24-246): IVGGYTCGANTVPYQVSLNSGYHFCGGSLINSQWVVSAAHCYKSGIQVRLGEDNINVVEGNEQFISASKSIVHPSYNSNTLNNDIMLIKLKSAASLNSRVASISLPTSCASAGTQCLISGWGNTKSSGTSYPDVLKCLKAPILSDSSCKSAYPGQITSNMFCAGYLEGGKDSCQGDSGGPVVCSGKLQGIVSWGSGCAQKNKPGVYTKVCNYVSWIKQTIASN

[2] = system: metallo proteinase produced by Pseudomonas aeruginosa; experiment: inhibitory activity against metallo proteinase of Pseudomonas aeruginosa (casein digestion); type: biochemical
Description: as §1

papain = target: T2, papain (Carica papaya, UniProt P00784); experiment: inhibitory activity against papain; type: biochemical
T2 sequence (P00784 134-345): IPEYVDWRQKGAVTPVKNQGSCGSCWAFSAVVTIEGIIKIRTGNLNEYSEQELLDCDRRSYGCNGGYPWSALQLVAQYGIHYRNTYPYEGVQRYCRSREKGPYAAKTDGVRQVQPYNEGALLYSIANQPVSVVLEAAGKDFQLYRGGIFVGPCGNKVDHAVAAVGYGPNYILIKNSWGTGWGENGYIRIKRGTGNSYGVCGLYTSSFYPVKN

Solubility = type: physicochemical
[3] = system: metallo proteinase produced by Aspergillus oryzae; experiment: inhibitory activity against metallo proteinase of Aspergillus oryzae; type: biochemical
chymotrypsin = chymotrypsin (Bos taurus, UniProt P00766); experiment: inhibitory activity against chymotrypsin; type: biochemical
[4] = amount of compound in the assay

Sequence of thermolysin (P00800 233-548): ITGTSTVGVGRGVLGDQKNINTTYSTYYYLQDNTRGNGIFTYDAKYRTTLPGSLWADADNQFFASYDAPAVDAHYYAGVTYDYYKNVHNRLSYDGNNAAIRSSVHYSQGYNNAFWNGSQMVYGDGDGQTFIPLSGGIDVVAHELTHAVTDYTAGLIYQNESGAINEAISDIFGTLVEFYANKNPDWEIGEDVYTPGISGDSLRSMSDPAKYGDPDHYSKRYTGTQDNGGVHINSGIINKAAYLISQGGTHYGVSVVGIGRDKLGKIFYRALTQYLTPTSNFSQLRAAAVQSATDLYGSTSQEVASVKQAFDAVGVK
Sequence of pepsin (P00791 60-385): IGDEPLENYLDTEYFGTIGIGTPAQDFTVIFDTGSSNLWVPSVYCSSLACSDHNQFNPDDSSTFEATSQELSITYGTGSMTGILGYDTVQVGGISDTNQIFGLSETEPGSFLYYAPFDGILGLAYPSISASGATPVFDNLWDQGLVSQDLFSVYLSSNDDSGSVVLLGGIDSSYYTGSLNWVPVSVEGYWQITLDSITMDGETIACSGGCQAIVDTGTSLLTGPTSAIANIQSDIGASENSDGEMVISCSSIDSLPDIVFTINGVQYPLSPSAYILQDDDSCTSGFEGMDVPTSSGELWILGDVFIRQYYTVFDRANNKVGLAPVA

Compound: CC(C)C[C@H](NP(=O)(O)OC1O[C@@H](C)[C@@H](O)[C@@H](O)[C@H]1O)C(=O)N[C@@H](Cc1c[nH]c2ccccc12)C(=O)O (stereo partly drawn) [novel tryptophan derivative, N-(6-deoxy-L-talosyloxy hydroxyphosphinyl)-L-leucyl-L-tryptophan]
- Stability ([1]; acidic aqueous solution): Unstable
- Stability (remaining activity) ([1]; standing for 24 hours at pH 1): Activity is lost completely
- Stability ([1]; weak acidic, neutral, or alkaline aqueous solution): Stable
- inhibiting activity (in words) (subtilis): does not inhibit
- inhibiting activity (in words) (thermolysin): strongly inhibits
- Amount necessary for inhibiting 50% of the enzyme activity (thermolysin; [4]): 0.35 µg
- inhibiting activity (in words) (pepsin): does not inhibit
- inhibiting activity (in words) (trypsin): does not inhibit
- inhibiting activity (in words) [2]: strongly inhibits
- Amount necessary for inhibiting 50% of the enzyme activity [2, 4]: 4 µg
- inhibiting activity (in words) (papain): does not inhibit
- Solubility (Solubility; benzene): Insoluble
- Solubility (Solubility; chloroform): Insoluble
- Solubility (Solubility; ethanol): Soluble
- Solubility (Solubility; ether): Insoluble
- Solubility (Solubility; hexane): Insoluble
- Solubility (Solubility; methanol): Soluble
- Solubility (Solubility; water): Soluble
- inhibiting activity (in words) [3]: inhibits
- inhibiting activity (in words) (chymotrypsin): does not inhibit
